According to patent publication US10750742B2, “Pesticidally active pyrazole derivatives” (SYNGENTA PARTICIPATIONS AG, priority 2015, dated 2020):
Like-named read-outs stand apart in the source and are kept apart here.

Experiments:
Type in all cases: in vivo
Diabrotica balteata = Diabrotica balteata (corn root worm), maize sprout test; conditions: 96 h, read-out: control (mortality and growth inhibition)
Experimental: Diabrotica balteata, (Corn Root Worm)
Maize sprouts, placed on an agar layer in 24-well microtiter plates were treated with aqueous test solutions prepared from 10′000 ppm DMSO stock solutions by spraying. After drying, the plates were infested with L2 larvae (6 to 10 per well). The samples were assessed for mortality and growth inhibition in comparison to untreated samples 4 days after infestation.

Spodoptera littoralis = Spodoptera littoralis (Egyptian cotton leaf worm), cotton leaf disc spray test; conditions: foliar, 72 h, read-out: control (at least one of mortality, anti-feedant effect, growth inhibition); for percent control (mortality, anti-feedant effect or growth inhibition) at 200 ppm: application rate 200 ppm, L1 larvae, 3 days after infestation
Summary of the method: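 Cotton leaf discs on agar were sprayed with aqueous dilutions of 10′000 ppm DMSO stocks, dried and infested with five L1 larvae. Mortality, anti-feedant effect and growth inhibition were scored against untreated samples 3 days after infestation. Control = any of these higher than untreated.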

Plutella xylostella = Plutella xylostella (diamond back moth), artificial diet test; conditions: 120 h, read-out: control (mortality and growth inhibition)
Experimental: Plutella xylostella (Diamond Back Moth):
24-well microtiter plates with artificial diet were treated with aqueous test solutions prepared from 10′000 ppm DMSO stock solutions by pipetting. After drying, the plates were infested with L2 larvae (10 to 15 per well). The samples were assessed for mortality and growth inhibition in comparison to untreated samples 5 days after infestation.

Tetranychus urticae = Tetranychus urticae (two-spotted spider mite), bean leaf disc test; conditions: foliar, 192 h, read-out: control (mortality on mixed population, mobile stages)
Experimental: Tetranychus urticae (Two-Spotted Spider Mite):
Bean leaf discs on agar in 24-well microtiter plates were sprayed with aqueous test solutions prepared from 10′000 ppm DMSO stock solutions. After drying the leaf discs were infested with a mite population of mixed ages. The samples were assessed for mortality on mixed population (mobile stages) 8 days after infestation.

Thrips tabaci [1] = assay: Thrips tabaci (onion thrips), sunflower leaf disc test; conditions: foliar, 144 h, read-out: control (mortality)
Experimental: Thrips tabaci (Onion Thrips):
(§1) Sunflower leaf discs were placed on agar in 24-well microtiter plates and sprayed with aqueous test solutions prepared from 10′000 ppm DMSO stock solutions. After drying the leaf discs were infested with a thrips population of mixed ages. The samples were assessed for mortality 6 days after infestation.

Euschistus heros = Euschistus heros (neotropical brown stink bug), soybean leaf test; conditions: 120 h, read-out: effect in at least one of the two categories (mortality or growth inhibition); for percent effect (mortality or growth inhibition) at 200 ppm: application rate 200 ppm, N2 nymphs, 5 days after infestation
Experimental: Euschistus heros (Neotropical Brown Stink Bug):
Soybean leaves on agar in 24-well microtiter plates were sprayed with aqueous test solutions prepared from 10′000 ppm DMSO stock solutions. After drying the leaves were infested with N2 nymphs. The samples were assessed for mortality and growth inhibition in comparison to untreated samples 5 days after infestation.

Thrips tabaci [2] = assay: Comparison: insecticidal activity against Thrips tabaci, sunflower leaf discs; conditions: Thrips tabaci, foliar, 144 h, 6 days after infestation, read-out: Mortality (%)
Experimental: Biological Comparison Data:
Compound A and B are disclosed in WO2014/122083 as example (Ic-1) (p. 76) and (lc-2) (p. 82, Table 3). The activities of compounds A and B to treat different pests are compared with the activities of compound 4, 6, 15 and 35 according to the present invention. The tests are carried out at different concentrations (ppm).
b) Insecticidal Activity Against Thrips tabaci (Onion Thrips):
as §1

Myzus persicae [3] = assay: Myzus persicae (green peach aphid), sunflower leaf disc spray test; conditions: foliar, 144 h
Experimental: Myzus persicae (Green Peach Aphid):
Sunflower leaf discs were placed on agar in a 24-well microtiter plate and sprayed with test solutions at an application rate of 200 ppm. After drying, the leaf discs were infested with an aphid population of mixed ages. After an incubation period of 6 DAT, samples were checked for mortality. The following compounds gave at least 80% mortality of Myzus persicae: compounds 1,2, 3, 4, 5, 6, 11, 12, 15, 17, 18, 19, 20, 23, 24, 25, 26, 27, 30, 32, 33, 34 35, 41, 43, 44, 47, 50, 55, 58, 59, 60, 61, 62, 63, 64, 65 and 66.

Myzus persicae [4] = assay: Myzus persicae (green peach aphid), sucrose solution / Parafilm test; conditions: 120 h
Summary of the method: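 Compound mixed into sucrose solution at 12.5 ppm under stretched Parafilm; aphid-infested pea seedlings set on the membrane and plate inverted so insects feed through it. Mortality assessed 5 days after infestation.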

[5] = application rate 200 ppm, L2 larvae, 4 days after infestation
[6] = application rate 200 ppm, L2 larvae, 5 days after infestation
[7] = application rate 200 ppm, 8 days after infestation
[8] = application rate 200 ppm, mixed ages, 6 days after infestation
[9] = application rate 200 ppm, mixed ages, 6 DAT, read-out: mortality
[10] = test rate of 12 ppm, sucrose solution, 5 days after infestation, read-out: mortality

Row | Compound | mortality at 200 ppm (Diabrotica balteata; [5]) [%] | percent control (mortality, anti-feedant effect or growth inhibition) at 200 ppm (Spodoptera littoralis) [%] | mortality at 200 ppm (Plutella xylostella; [6]) [%] | mortality at 200 ppm (Tetranychus urticae; [7]) [%] | mortality at 200 ppm (Thrips tabaci [1]; [8]) [%] | percent effect (mortality or growth inhibition) at 200 ppm (Euschistus heros) [%] | mortality at 200 ppm (Myzus persicae [3]; [9]) [%] | mortality at 12 ppm (Myzus persicae [4]; [10]) [%] | further results
1 | Cn1nc(OC(F)C(F)(F)C(F)(F)F)c(C(F)(F)F)c1-n1cc(-c2ccc(Cl)c(C(=O)NC3(C#N)CC3)c2)cn1 (centres unmarked) [compound 4] | ≥ 80 | ≥ 80 | ≥ 80 | ≥ 80 | ≥ 80 | ≥ 80 | ≥ 80 | ≥ 80 | mortality at 0.05 ppm (Thrips tabaci [2]; 0.05 ppm): 65%; mortality at 0.2 ppm (Thrips tabaci [2]; 0.2 ppm): 90%; mortality at 0.8 ppm (Thrips tabaci [2]; 0.8 ppm): 100%; mortality at 3 ppm (Thrips tabaci [2]; 3 ppm): 100%; mortality at 12.5 ppm (Thrips tabaci [2]): 100%
2 | Cn1nc(OC(F)(F)C(F)OC(F)(F)F)c(C(F)(F)F)c1-n1cc(-c2ccc(Cl)c(C(=O)NC3(C#N)CC3)c2)cn1 (centres unmarked) [compound 15] | ≥ 80 | ≥ 80 | ≥ 80 | ≥ 80 | ≥ 80 | ≥ 80 | ≥ 80 | ≥ 80 | mortality at 0.781 ppm (Thrips tabaci [2]; 0.781 ppm): 0%; mortality at 3.12 ppm (Thrips tabaci [2]; 3.12 ppm): 90%; mortality at 12.5 ppm (Thrips tabaci [2]): 90%; mortality at 50 ppm (Thrips tabaci [2]; 50 ppm): 100%; mortality at 200 ppm (Thrips tabaci [2]; 200 ppm): 100%
3 | Cn1nc(OCC(F)(F)C(F)(F)C(F)(F)C(F)F)c(C(F)(F)F)c1-n1cc(-c2ccc(Cl)c(C(=O)NC3CC3)c2)cn1 [compound 27] | – | – | – | – | – | – | – | – | mortality at 200 ppm (Diabrotica balteata): ≥ 80%; mortality at 200 ppm (Spodoptera littoralis): ≥ 80%; mortality at 200 ppm (Plutella xylostella): ≥ 80%; mortality at 200 ppm (Tetranychus urticae): ≥ 80%; mortality at 200 ppm (Thrips tabaci [1]): ≥ 80%; percent control (mortality or growth inhibition) at 200 ppm (Euschistus heros): ≥ 80%; mortality at 200 ppm (Myzus persicae [3]): ≥ 80%; mortality at 12 ppm (Myzus persicae [4]): ≥ 80%
4 | Cn1nc(OCC(F)(F)C(F)F)c(C(F)(F)F)c1-n1cc(-c2ccc(Cl)c(C(=O)NC3(C#N)CC3)c2)cn1 [compound 30] | ≥ 80 | ≥ 80 | ≥ 80 | ≥ 80 | ≥ 80 | ≥ 80 | ≥ 80 | ≥ 80 | –
5 | Cn1nc(OCC(F)(F)C(F)(F)F)c(C(F)(F)F)c1-n1cc(-c2ccc(Cl)c(C(=O)NC3CC3)c2)cn1 [compound 32] | ≥ 80 | ≥ 80 | ≥ 80 | ≥ 80 | ≥ 80 | ≥ 80 | ≥ 80 | ≥ 80 | –
6 | Cn1nc(OCC(F)(F)C(F)F)c(C(F)(F)F)c1-n1cc(-c2ccc(Cl)c(C(=O)NC3CC3)c2)cn1 [compound 33] | ≥ 80 | ≥ 80 | ≥ 80 | ≥ 80 | ≥ 80 | ≥ 80 | ≥ 80 | ≥ 80 | –
7 | Cn1nc(OC(F)(F)C(F)Br)c(C(F)(F)F)c1-n1cc(-c2ccc(Cl)c(C(=O)NC3(C#N)CC3)c2)cn1 (centres unmarked) [compound 47] | ≥ 80 | ≥ 80 | ≥ 80 | ≥ 80 | ≥ 80 | ≥ 80 | ≥ 80 | ≥ 80 | –
8 | Cn1nc(OC(F)(F)C(F)(C(F)=C(F)C(F)(F)F)C(F)(F)F)c(C(F)(F)F)c1-n1cc(-c2ccc(Cl)c(C(=O)NC3(C#N)CC3)c2)cn1 (centres unmarked) [compound 50] | ≥ 80 | ≥ 80 | ≥ 80 | ≥ 80 | ≥ 80 | ≥ 80 | ≥ 80 | ≥ 80 | –
9 | CN(C(=O)c1cc(-c2cnn(-c3c(C(F)(F)F)c(OC(F)(F)C(F)C(F)(F)F)nn3C)c2)ccc1Cl)C1(C#N)CC1 (centres unmarked) [compound 55] | ≥ 80 | ≥ 80 | ≥ 80 | ≥ 80 | ≥ 80 | ≥ 80 | ≥ 80 | ≥ 80 | –
10 | Cn1nc(OC(F)(F)C(F)C(F)(F)F)c(C(F)(F)F)c1-n1cc(-c2ccc(F)c(C(=O)NC3(C#N)CC3)c2)cn1 (centres unmarked) [compound 59] | ≥ 80 | ≥ 80 | ≥ 80 | ≥ 80 | ≥ 80 | ≥ 80 | ≥ 80 | ≥ 80 | –
11 | Cn1nc(OC(F)(F)C(F)C(F)(F)F)c(C(F)(F)F)c1-n1cc(-c2ccc(F)c(C(=O)NC3CC3)c2)cn1 (centres unmarked) [compound 60] | ≥ 80 | ≥ 80 | ≥ 80 | ≥ 80 | ≥ 80 | ≥ 80 | ≥ 80 | ≥ 80 | –
